21 molecules from patent US5300513A, “Carbostyril derivatives and pharmaceutical composition containing the same” (Otsuka Pharmaceutical Co., Ltd., priority 1990, dated 1994) can be followed below.

Structures can show the parent of a compound that is named as a salt.

T1 sequence (P30560 whole entry): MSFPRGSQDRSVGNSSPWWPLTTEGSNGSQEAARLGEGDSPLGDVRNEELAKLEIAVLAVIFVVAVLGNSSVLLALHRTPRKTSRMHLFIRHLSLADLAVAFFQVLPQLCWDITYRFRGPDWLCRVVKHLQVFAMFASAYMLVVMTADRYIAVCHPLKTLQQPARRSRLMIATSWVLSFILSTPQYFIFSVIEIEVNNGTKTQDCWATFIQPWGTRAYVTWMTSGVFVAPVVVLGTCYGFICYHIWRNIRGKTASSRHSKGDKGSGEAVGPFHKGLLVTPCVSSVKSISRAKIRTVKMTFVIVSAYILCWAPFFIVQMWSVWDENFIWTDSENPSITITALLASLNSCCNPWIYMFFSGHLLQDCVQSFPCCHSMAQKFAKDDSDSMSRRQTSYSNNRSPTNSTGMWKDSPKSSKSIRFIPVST

One test has as its target T1, V1 receptor (Rattus norvegicus, UniProt P30560).
T1 construct: Using rat liver plasma membrane preparations; from tissue; host or cells: rat liver plasma membranes
Nature of the test: V1 receptor binding assay (inhibition of [3H]-Arg-vasopressin binding to rat liver plasma membrane).
Conditions: not given
The method, then: Using rat liver plasma membrane preparations prepared according to Ichihara's method [cf: Akira Ichihara, J. Bio. […] After incubation, the mixture is filtered three times using the glass filter (GF/F) so as to separate the membrane preparation combined with vasopressin and then washed with the buffer (5 ml). This glass filter is taken out and mixed with liquid scintillation cocktail. The amount of [H]^3 -vasopressin combined with the membrane is measured by liquid scintillation counter and the rate of the inhibitory effect of the test compound is estimated according to the following equation. [formula]
In turn, `C=CCSc1ccc(C(=O)N2CCC(N3C(=O)CCc4ccccc43)CC2)c(OC)c1` [Test Compound 16, 1-[1-(2-Methoxy-4-allylthiobenzoyl)-4-piperidinyl]-3,4-dihydrocarbostyril] showed an IC50 of 110 nM.

The same test, now with this note: rat liver plasma membrane; [H]^3-Arg-vasopressin 2×10^-10 M; 37° C., 10 minutes, pH 8.0; read-out: IC50.
Take `O=C(c1ccc(OCCCCCN2CCC3(CCCCC3)CC2)cc1)N1CCC(N2C(=O)CCc3ccccc32)CC1` [Test Compound 1, 1-[1-{4-[5-(Cyclohexanespiro-4'-(1-piperidinyl))pentyloxy]benzoyl}-4-piperidinyl]-3,4-dihydrocarbostyril]: the IC50 turned out to be 47 nM.

As to `O=C(c1ccc(OCCCCCNC23CC4CC(CC(C4)C2)C3)cc1)N1CCC(N2C(=O)CCc3ccccc32)CC1` [Test Compound 2, 1-{1-[4-(5-Tricyclo[3.3.1.1^3.7]decanylaminopentyloxy)benzoyl]-4-piperidinyl}-3,4-dihydrocarbostyril hydrochloride], the IC50 worked out at 27 nM.

As for `O=C(c1ccc(OCCCCCNCC23CC4CC(CC(C4)C2)C3)cc1)N1CCC(N2C(=O)CCc3ccccc32)CC1` [Test Compound 3, 1-{1-[4-(5-Tricyclo[3.3.1.1^3.7]decanylmethylaminopentyloxy)benzoyl]-4-piperidinyl}-3,4-dihydrocarbostyri], the IC50 is 100 nM.

As to `O=C(c1ccc(OCCCCCNCC(F)(F)F)cc1)N1CCC(N2C(=O)CCc3ccccc32)CC1` [Test Compound 4, 1-[1-{4-[5-(2,2,2-Trifluoroethylamino)-pentyloxy)benzoyl}-4-piperidinyl}-3,4-dihydrocarbostyril], the IC50 was 320 nM.

In the case of `CCOC(=O)CC(=O)OCCN(C)CCCCCOc1ccc(C(=O)N2CCC(N3C(=O)CCc4ccccc43)CC2)cc1` [Test Compound 5, 1-[1-{4-[5-[N-Methyl-N-(2-ethoxycarbonylacetyloxyethyl)amino}pentyloxy]benzoyl}-4-piperidinyl]-3,4-dihydrocarbostyril], the IC50 amounted to 110 nM.

Take `C=CCNCC(O)CCCCOc1ccc(C(=O)N2CCC(N3C(=O)CCc4ccccc43)CC2)cc1` (stereo not drawn) [Test Compound 6, 1-{1-[4-(5-Hydroxy-6-allylaminohexyloxy)benzoyl]-4-piperidinyl}-3,4-dihydrocarbostyril]: the IC50 was 140 nM.

Consider `NC1CCN(CCCCCOc2ccc(C(=O)N3CCC(N4C(=O)CCc5ccccc54)CC3)cc2)CC1` [Test Compound 7, 1-[1-{4-[5-(4-Amino-1-piperidinyl)pentyloxy)-benzoyl-}-4-piperidinyl]-3,4-dihydrocarbostyril], for which the IC50 came to 28 nM.

For `O=C(c1ccc(OCCCCCN2CCC(NC(=O)C(F)(F)F)CC2)cc1)N1CCC(N2C(=O)CCc3ccccc32)CC1` [Test Compound 8, 1-[1-{4-[5-(4-Trifluoroacetylamino-1-piperidinyl)pentyloxy]benzoyl}-4-piperidinyl]-3,4-dihydrocarbostyril], the IC50 was 63 nM.

Turning to `CC(=O)NC1CCN(CCCCCOc2ccc(C(=O)N3CCC(N4C(=O)CCc5ccccc54)CC3)cc2)CC1` [Test Compound 9, 1-[1-{4-[5-(4-Acetylamino-1-piperidinyl)-pentyloxy)benzoyl}-4-piperidinyl]-3,4-dihydrocarbostyril], the IC50 turned out to be 36 nM.

Take `CCN(CC)CC(CCCCOc1ccc(C(=O)N2CCC(N3C(=O)CCc4ccccc43)CC2)cc1)OC(=O)NC` (stereo not drawn) [Test Compound 10, 1-{1-[4-(5-Methylaminocarbonyloxy-6-diethylaminohexyloxy)benzoyl]-4-piperidinyl}-3,4-dihydrocarbostyril]: the IC50 came to 38 nM.

For the molecule `CCOc1ccc(C(=O)N2CCC(N3C(=S)CCc4ccccc43)CC2)c(OC)c1` [Test Compound 11, 1-[1-(2-Methoxy-4-ethoxybenzoyl)-4-piperidinyl]-3,4-dihydrothiocarbostyril], the IC50 was 730 nM.

Consider `O=C(c1ccc(SCCCCCN2CCCC2)cc1)N1CCC(N2C(=O)CCc3ccccc32)CC1` [Test Compound 12, 1-[1-{4-[5-(1-Pyrrolidinyl)pentylthio]-benzoyl}-4-piperidinyl]-3,4-dihydrocarbostyril], for which the IC50 came to 34 nM.

`O=C(c1ccc(-c2ccccn2)cc1)N1CCC(N2C(=O)CCc3ccccc32)CC1` [Test Compound 13, 1-{1-[4-(2-Pyridyl)benzoyl}-4-piperidinyl}-3,4-dihydrocarbostyril]: the IC50 turned out to be 1200 nM.

On to `O=C(c1ccc(-c2ncc[nH]2)cc1)N1CCC(N2C(=O)CCc3ccccc32)CC1` [Test Compound 14, 1-{1-[4-(2-Imidazolyl)benzoyl}-4-piperidinyl}-3,4-dihydrocarbostyril], for which the IC50 turned out to be 1400 nM.

As to `Nc1ccccc1Sc1nccn1-c1ccc(C(=O)N2CCC(N3C(=O)CCc4ccccc43)CC2)cc1` [Test Compound 15, 1-[1-{4-[2-(2-Aminophenylthio)-1-imidazolyl]-benzoyl}-4-piperidinyl]-3,4-dihydrocarbostyril], the IC50 stood at 800 nM.

As to `O=C(c1ccc([S+]([O-])CCCCCN2CCCC2)cc1)N1CCC(N2C(=O)CCc3ccccc32)CC1` (stereo not drawn) [Test Compound 17, 1-[1-{4-[5-(1-Pyrrolidinyl)pentylsulfinyl)-benzoyl}-4-piperidinyl]-3,4-dihydrocarbostyril], the IC50 was determined as 3000 nM.

Consider `O=C(c1ccc(S(=O)(=O)CCCCCN2CCCC2)cc1)N1CCC(N2C(=O)CCc3ccccc32)CC1` [Test Compound 18, 1-[1-{4-[5-(1-Pyrrolidinyl)pentylsulfonyl]-benzoyl}-4-piperidinyl]-3,4-dihydrocarbostyril], for which the IC50 came to 1900 nM.

In the case of `O=C(c1ccc(-c2nc3ccccc3[nH]2)cc1)N1CCC(N2C(=O)CCc3ccccc32)CC1` [Test Compound 19, 1-{1-[4-(2-Benzimidazolyl)benzoyl]-4-piperidinyl}-3,4-dihydrocarbostyril], the IC50 worked out at 2100 nM.

Take `O=C(c1ccc(-n2ccnc2-c2ccccc2)cc1)N1CCC(N2C(=O)CCc3ccccc32)CC1` [Test Compound 20, 1-{1-[4-(2-Phenyl-1-imidazolyl)benzoyl]-4-piperidinyl}-3,4-dihydrocarbostyril]: the IC50 stood at 2800 nM.

Regarding `COc1ccc(-c2nccn2-c2ccc(C(=O)N3CCC(N4C(=O)CCc5ccccc54)CC3)cc2)cc1` [Test Compound 21, 1-[1-{4-[2-(4-Methoxyphenyl)-1-imidazolyl]-benzoyl}-4-piperidinyl]-3,4-dihydrocarbostyril], the IC50 is 2700 nM.
